In patent US6069166A, “Fused heterocyclic benzenecarboxamide derivatives and PGD2 antagonists comprising them” (Shionogi & Co., Ltd., priority 1996, dated 2000):
pIC50: −log10 of the molar value.

How the values were obtained:
PGD2 Receptor [1] = target: T1, PGD2 Receptor (Homo sapiens, UniProt Q13258); assay: Binding to PGD2 receptor (human platelet membrane fraction, [3H]PGD2); settings: human platelet membrane fraction 0.1 mg, 5 nM [3H]PGD2, 4° C., 90 min, pH 7.4; read-out: IC50 (inhibition of [3H]PGD2 binding)
T1 construct: A suspension adjusted to contain platelet at a final concentration of; endogenous in cells; host or cells: washed human platelets from peripheral blood of a healthy volunteer
T1 sequence (Q13258 1-359): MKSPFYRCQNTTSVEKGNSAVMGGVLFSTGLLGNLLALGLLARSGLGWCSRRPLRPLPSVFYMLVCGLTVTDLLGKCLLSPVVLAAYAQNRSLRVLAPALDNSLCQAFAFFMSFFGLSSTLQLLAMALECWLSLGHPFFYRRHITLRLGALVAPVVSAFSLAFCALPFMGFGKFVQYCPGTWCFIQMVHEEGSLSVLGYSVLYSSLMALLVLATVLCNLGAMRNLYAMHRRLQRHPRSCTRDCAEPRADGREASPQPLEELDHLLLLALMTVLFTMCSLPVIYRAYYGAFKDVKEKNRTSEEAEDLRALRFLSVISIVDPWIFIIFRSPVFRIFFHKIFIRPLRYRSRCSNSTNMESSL
Protocol: Experiment 1 Binding to PGD2 Receptor
(1) Preparation of Human Platelet Membrane Fraction
Blood sample was obtained using a plastic syringe containing 3.8% sodium citrate from the vein of healthy volunteers (adult male and female), put into a plastic test tube and mixed gently by rotation. The sample was then centrifuged at 1800 rpm, 10 min at room temperature, and the supernatant containing PRP (platelet-rich plasma) was collected. The PRP was re-centrifuged at […], 22 min at room temperature to obtain platelets. The platelets were homogenized using a homogenizer (Ultra-Turrax) followed by centrifugation 3 times at 20,000 rpm, 10 min at 4° C. to obtain a platelet membrane fraction. After protein determination, the membrane fraction was adjusted to 2 mg/ml and preserved in a refrigerator at -80° C. until use.
(2) Binding to PGD2 Receptor
To a binding-reaction solution (50 mM Tris/HCl, pH 7.4, 5 mM MgCl2) (0.2 ml) were added the human platelet membrane fraction (0.1 mg) and 5 nM [^3 H]PGD2 (115Ci/mmol), and reacted at 4° C. for 90 min. After the reaction completed, the reaction mixture was filtered through a glass fiber filter paper, washed several times with cooled saline, and measured the radioactivity retained on the filter paper. The specific binding was calculated by subtracting the non-specific binding (the binding in the presence of 10 μM PGD2) from the total binding. The inhibitory activity of each compound was expressed as the concentration required for 50% inhibition (IC50), which was determined by depicting a substitution curve by plotting the binding ratio (%) in the presence of each compound, where the binding ratio in the absence of a test compound is 100%.

PGD2 Receptor [2] = target: T1, PGD2 Receptor; assay: Antagonistic activity against PGD2 receptor using human platelet (PGD2-induced cAMP increase); format: cell-based; settings: human platelets 5×10^8/ml, 0.1 μM PGD2, IBMX 0.5 mM, cAMP by radioimmunoassay; read-out: IC50 (inhibition of cAMP increased by PGD2)
Protocol: Experiment 2 Evaluation of Antagonistic Activity Against PGD2 Receptor Using Human Platelet Peripheral blood was obtained from a healthy volunteer using a syringe in which 1/9 volume of citric acid/dextrose solution has been previously added. The syringe was subjected to centrifugation at 180 g for 10 min to obtain the supernatant (PRP:platelet rich plasma). The resultant PRP was washed 3 times with a washing buffer and the number of platelet was counted with a micro cell counter. A suspension adjusted to contain platelet at a final concentration of 5×10^8 /ml was warmed at 37° C., and then subjected to the pre-treatment with 3-isobutyl-1-methylxanthine (0.5 mM) for 5 min. To the suspension was added a test compound diluted at various concentration. Ten-minute later, the reaction was induced by the addition of 0.1 μM PGD2 and, 2-minute later, stopped by the addition of hydrochloric acid. The platelet was destroyed with an ultrasonic homogenizer. After centrifugation, the cAMP in the supernatant was determined by radioimmunoassay. PGD2 receptor antagonism of a drug was evaluated as follows. The inhibition rate regarding cAMP increased by the addition of PGD2 was determined at individual concentration, and then the concentration of the drug required for 50% inhibition (IC50) was calculated.

[3] = tested on: nasal blockage (intranasal pressure); assay: Nasal blockage model in sensitized guinea pigs (intranasal pressure after OVA challenge); format: in vivo, Hartley male guinea pig; settings: oral, 60 min before antigen exposure; AUC of intranasal pressure 0-30 min vs vehicle; dose not given
Protocol: Experiment 3 Experiment Using Nasal Blockage Model
The method used for measuring the intranasal pressure for evaluating the anti-nasal blockage using guinea pigs is described below.
A 1% ovalbumin (OVA) solution was treated with an ultrasonic nebulizer to obtain an aerosol. Hartley male guinea pig was sensitized by inhaling twice the aerosol for 10 min at one-week interval. Seven-day after the sensitization, the guinea pig was exposed to an antigen to initiate the reaction. Briefly, the trachea was incised under the anesthesia with pentobarbital (30 mg/kg. i.p.) and cannulas were inserted into the trachea at the pulmonary and nasal cavity sides. The canal inserted at the pulmonary side was connected with an artificial respirator that provides 4 ml air 60 times/min. After arresting the spontaneous respiration of the guinea pig with Gallamin (2 mg/kg, i.v.), air was supplied to the snout side with an artificial respirator at the frequency of 70 times/min, and the flow rate of 4 ml air/time, and the atmospheric pressure required for the aeration was measured by the use of a transducer fitted at the branch. The measurement was used as a parameter of the nasal cavity resistance. The exposure of an antigen was carried out by generating aerosol of 3% OVA solution for 3 min between the respirator and the nasal cavity cannula. […]

Row | SMILES | pIC50 (PGD2 Receptor [1]) | pIC50 (PGD2 Receptor [2]) | Inhibitory Rate (%) [3]
1 | COc1csc2c(C(=O)N[C@@H]3[C@@H](C/C=C\CCCC(=O)O)C[C@H]4C[C@@H]3C4(C)C)cccc12 [IA-a-9] | 9.39 | 8.36 | –
2 | Cc1csc2c(C(=O)N[C@@H]3[C@@H](C/C=C\CCCC(=O)O)C[C@H]4C[C@@H]3C4(C)C)cccc12 [IA-a-4] | 7.96 | 6.82 | –
3 | CC1(C)[C@H]2C[C@H](C/C=C\CCCC(=O)O)[C@@H](NC(=O)c3cccc4c(Br)csc34)[C@@H]1C2 [IA-a-7] | 8.92 | 7.96 | –
4 | CC1(C)[C@H]2C[C@H](C/C=C\CCCC(=O)O)[C@@H](NC(=O)c3cccc4ccsc34)[C@@H]1C2 [IA-a-1] | 7.59 | 7.38 | 80%
